Results taken from patent US20240400986A1, “MEMBRANE BOUND COMPOSITIONS AND METHODS RELATING TO SAME” (FLAGSHIP PIONEERING INNOVATIONS VII, LLC, priority 2021, published 2024).
Where a name gives a salt, the structure may show the parent alone. Read-outs that look alike come from different tables or passages of the source.

Key:
[1] = system: cardiomyocytic cell line derived from human ventricular heart tissue; assay: Cell viability in cardiomyocyte compound screen (CellTiter-Glo); assay type: cell-based
Description: Cells were stained with Hoechst 34580, CellTracker Green/CellMask Green Actin and MitoTracker Deep Red to detect nuclear material, cytoplasm/F-actin, and mitochondria, respectively, and cultured in poly-L-lysine-coated 96-well glass bottom plates at 15,800 cells/cm^2 and allowed to adhere overnight. For the screening, a total of 100 randomly organized compounds (TargetMol) were divided in 5 groups. Each group included an untreated condition, a vehicular DMSO control, and a known high-gigasome producing condition to comparatively study gigasome production rates. As a cell death control group, 500 nM Staurosporine was added to induce apoptosis. Cultures were incubated for 24 hours under gigasome inducing conditions at concentrations ranging between 10 nM and 10,000 nM. […] Cells remaining in the 96-well plates were assessed for viability using CellTiter-Glo (Promega).

[2] = system: cardiomyocytic cell line derived from human ventricular heart tissue; assay: Small molecule compound screen of gigasome production in cardiomyocytic monocultures;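 for all read-outs here: gigasomes shed into the culture medium were imaged by confocal microscopy and counted as round particles lacking nuclear signal, extrapolated to the whole well, fold change is relative to DMSO vehicle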; conditions: for fold induction at 0.01 µM / fold induction at 0.1 µM / fold induction at 1 µM / fold induction at 10 µM: Homo sapiens, Cardiomyocyte, read-out: Fold Change of Gigasomes Produced vs. DMSO
[3] = system: neuronal cell line derived from human neuroblastoma; assay: Small molecule compound screen of gigasome production in neuronal monocultures; conditions: for Number of Gigasomes Produced: neuronal cells, 24 hours
Description: To quantify and characterize gigasome production using microscopy, while tracking cell viability/phenotype, a multi-readout system was developed that allowed simultaneous analysis of gigasomes harvested from cell culture media supernatants and respective gigasome producing cell viability. […] For the screening, a total of 99 compounds (TargetMol) were divided in 5 groups. Each group included an untreated condition, a vehicular DMSO control, and a known high-gigasome producing condition to comparatively study gigasome production rates. As a cell death control group, 500 nM Staurosporine was added to induce apoptosis. Cultures were incubated for 24 hours under gigasome inducing conditions at concentrations ranging between 10 nM and 10,000 nM. Before the end of the treatment, live neuronal cultures were imaged. The Zeiss ZEN Blue software was used to distribute imaging fields of view (positions) to create an unbiased imaging sample of a well. 5 images were taken using a Zeiss LSM 900 confocal microscope. […] The BioApps ZEN software package was used to perform cell nucleus segmentation and counting. After 24 hours, gigasomes were harvested from the cell culture media by gently removing from the top of each 96-well ⅔ of the total volume without disturbing the cell layer (containing the settled gigasomes) and by adding to each well the same amount of PBS. The wells were washed twice gently, and the gigasome-containing media/PBS wash was transferred into the well of a 384-well glass bottom plate. Cells remaining in the 96-well plates were assessed for viability using CellTiter-Glo (Promega).
For gigasome analysis in 384-well plates, the Zeiss ZEN Blue software was used to distribute positions to create an unbiased imaging sample of a well. 6 images per well were taken using a Zeiss LSM 900 confocal microscope.
A watershed binary segmentation step was performed to separate grouped objects. For each particle in the mask, characteristic parameters of the particle were calculated and saved.
Particles of interest were identified by thresholding by area and circularity. […] Circularity, defined by the formula 4pi(area/perimeter^2, was set to be between 0.8 and 1, where a value of 1.0 is a perfect circle, and a value of 0 is a line. Gigasomes were identified from the particles of interest by thresholding by mean nuclear signal. The nuclear signal threshold was set using a value equal to one fourth of a threshold value calculated by the Li auto-threshold algorithm applied to the distribution of all particles of interest. Particles of interest with nuclear signal below this value were considered “negative” for nuclear material and were identified as gigasomes. A sampling factor was calculated to extrapolate the total quantity of a type of object (particles, particles of interest, gigasomes) in the well. The sampling factor was the percentage of the well's area that was imaged. […] The normalized quantity or distribution of objects was described as a quantity or distribution of objects per 1000 cells.

[4] = system: neuronal cell line derived from human neuroblastoma; conditions: neuronal cells, 24 hours
Protocol: For the screening, a total of 99 compounds (TargetMol) were divided in 5 groups. Each group included an untreated condition, a vehicular DMSO control, and a known high-gigasome producing condition to comparatively study gigasome production rates. As a cell death control group, 500 nM Staurosporine was added to induce apoptosis. Cultures were incubated for 24 hours under gigasome inducing conditions at concentrations ranging between 10 nM and 10,000 nM. Before the end of the treatment, live neuronal cultures were imaged. The Zeiss ZEN Blue software was used to distribute imaging fields of view (positions) to create an unbiased imaging sample of a well. 5 images were taken using a Zeiss LSM 900 confocal microscope. […] The BioApps ZEN software package was used to perform cell nucleus segmentation and counting. After 24 hours, gigasomes were harvested from the cell culture media by gently removing from the top of each 96-well ⅔ of the total volume without disturbing the cell layer (containing the settled gigasomes) and by adding to each well the same amount of PBS. […] Cells remaining in the 96-well plates were assessed for viability using CellTiter-Glo (Promega).

[5] = Table 23 (down-regulators), dose 10 nM, cardiomyocytes
[6] = Table 23 (down-regulators), dose 100 nM, cardiomyocytes
[7] = Table 23 (down-regulators), dose 1000 nM, cardiomyocytes
[8] = Table 23 (down-regulators), dose 10000 nM, cardiomyocytes
[9] = Table 22, dose 10 nM, cardiomyocytes, 24 hours
[10] = Table 22, dose 10000 nM, cardiomyocytes, 24 hours
[11] = Table 22, dose 1000 nM, cardiomyocytes, 24 hours
[12] = Table 22, dose 100 nM, cardiomyocytes, 24 hours
[13] = Homo sapiens, 24 h, read-out: Fold Change of Gigasomes Produced vs. DMSO

Q: For O=C(O)CC[N+](=O)[O-] [3-Nitropropanoic acid, reference compound], which Viability [1, 5] is on record?
A: >75%

Q: And the Viability [1, 6]?
A: 100.0%

Q: What about the Viability [1, 7] of the same compound?
A: >75%

Q: And the Viability [1, 8]?
A: 100.0%

Q: And the fold induction at 0.01 µM ([2]; 24 h)?
A: 0.75 to 1

Q: What about the fold induction at 0.1 µM ([2]; 24 h) of the same compound?
A: 0.75 to 1

Q: What about the fold induction at 1 µM ([2]; 24 h) of the same compound?
A: 0.25 to 0.5

Q: And the fold induction at 10 µM ([2]; 24 h)?
A: 0.25 to 0.5

Q: And the “Number of Gigasomes Produced” value [2, 5]?
A: 105-120

Q: And the “Number of Gigasomes Produced” value [2, 6]?
A: 90-105

Q: And the “Number of Gigasomes Produced” value [2, 7]?
A: 50-75

Q: What about the “Number of Gigasomes Produced” value [2, 8] of the same compound?
A: 35-50

Q: And the “downregulation of gigasome production” value ([2]; cardiomyocytes, doses 10-10,000 nM, 24 h)?
A: dose-dependent downregulation

Q: For CC(N)=NCc1cccc(CN)c1.Cl.Cl [1400W dihydrochloride], which Viability [1, 9] is on record?
A: 100%

Q: What about the Viability [1, 5] of the same compound?
A: 100.0%

Q: What about the Viability [1, 6] of the same compound?
A: 100.0%

Q: And the Viability [1, 7]?
A: 100.0%

Q: And the Viability [1, 8]?
A: 100.0%

Q: And the “Number of Gigasomes Produced” value [2, 9]?
A: 150-175

Q: What about the “Number of Gigasomes Produced” value [2, 5] of the same compound?
A: >150

Q: What about the “Number of Gigasomes Produced” value [2, 6] of the same compound?
A: 90-105

Q: What about the “Number of Gigasomes Produced” value [2, 7] of the same compound?
A: 90-105

Q: And the “Number of Gigasomes Produced” value [2, 8]?
A: 50-75

Q: With COc1cc(C(C)=O)ccc1O [Apocynin] as the compound, how does the Viability ([1]; human, 24 h, 10 nM) read?
A: >75%

Q: What about the Viability ([1]; human, 24 h, 10000 nM) of the same compound?
A: >75%

Q: What about the fold induction at 0.01 µM ([2]; 24 h) of the same compound?
A: 1 to 1.25

Q: What about the fold induction at 10 µM ([2]; 24 h) of the same compound?
A: 1 to 1.25

Q: And the “Number of Gigasomes Produced” value [2, 9]?
A: 150-175

Q: What about the “Number of Gigasomes Produced” value [2, 10] of the same compound?
A: 150-175

Q: Which results are given for NC(=O)N1c2ccccc2C=Cc2ccccc21 [Carbamazepine]?
A: Viability ([1]; human, 24 h, 10 nM): >75%; Viability ([1]; human, 24 h, 1000 nM): >75%; Viability ([1]; human, 24 h, 10000 nM): >75%; fold induction at 0.01 µM ([2]; 24 h): 1 to 1.25; fold induction at 1 µM ([2]; 24 h): 1.25 to 1.5; fold induction at 10 µM ([2]; 24 h): 1.25 to 1.5; Number of Gigasomes Produced [2, 9]: 200-225; Number of Gigasomes Produced [2, 11]: 250-275; Number of Gigasomes Produced [2, 10]: 250-275

Q: How did the Viability ([1]; human, 24 h, 1000 nM) turn out when Nc1ncn([C@@H]2O[C@H](CO)[C@@H](O)[C@H]2O)c(=O)n1 [Compound 5-Azacytidine, 5-Azacytidine] was run?
A: 50-75%

Q: What about the fold induction at 1 µM ([2]; 24 h) of the same compound?
A: 1 to 1.25

Q: And the “Number of Gigasomes Produced” value [2, 11]?
A: 150-175

Q: O=C(Nc1ccncc1)c1cc([N+](=O)[O-])ccc1Cl [Compound T0070907] was tested. Which Viability [1, 9] did it give?
A: 100%

Q: What about the Viability [1, 12] of the same compound?
A: 100%

Q: What about the “Fold Change of Gigasomes Produced vs. DMSO” value [2, 9] of the same compound?
A: 1.0-1.25

Q: What about the “Number of Gigasomes Produced” value [2, 9] of the same compound?
A: 150-175

Q: And the “Fold Change of Gigasomes Produced vs. DMSO” value [2, 12]?
A: 1.0-1.25

Q: What about the “Number of Gigasomes Produced” value [2, 12] of the same compound?
A: 150-175

Q: O=S(=O)(c1ccccc1)N(CC(F)(F)F)c1ccc(C(O)(C(F)(F)F)C(F)(F)F)cc1 [Compound T0901317] was tested. Which Viability ([1]; human, 24 h, 10000 nM) did it give?
A: >75%

Q: What about the fold induction at 10 µM ([2]; 24 h) of the same compound?
A: 1 to 1.25

Q: And the “Number of Gigasomes Produced” value [2, 10]?
A: 150-175

Q: Which Viability ([1]; human, 24 h, 10000 nM) does the source give for Cn1c(=O)n(-c2ccc(C(C)(C)C#N)cc2)c2c3cc(-c4cnc5ccccc5c4)ccc3ncc21 [Dactolisib] here?
A: >75%

Q: What about the fold induction at 10 µM ([2]; 24 h) of the same compound?
A: 1.25 to 1.5

Q: What about the “Number of Gigasomes Produced” value [2, 10] of the same compound?
A: 150-175

Q: How did the Viability [1, 5] turn out when CN(C)CCCSC(=N)N [Dimaprit dihydrochloride] was run?
A: 100.0%

Q: What about the Viability [1, 6] of the same compound?
A: 100.0%

Q: And the Viability [1, 7]?
A: >75%

Q: And the Viability [1, 8]?
A: 100.0%

Q: What about the fold induction at 0.01 µM ([2]; 24 h) of the same compound?
A: 0.75 to 1

Q: What about the fold induction at 0.1 µM ([2]; 24 h) of the same compound?
A: 0.75 to 1

Q: And the fold induction at 1 µM ([2]; 24 h)?
A: 0.5 to 0.75

Q: What about the fold induction at 10 µM ([2]; 24 h) of the same compound?
A: 0.25 to 0.5

Q: What about the “Number of Gigasomes Produced” value [2, 5] of the same compound?
A: 90-105

Q: And the “Number of Gigasomes Produced” value [2, 6]?
A: 75-90

Q: What about the “Number of Gigasomes Produced” value [2, 7] of the same compound?
A: 50-75

Q: And the “Number of Gigasomes Produced” value [2, 8]?
A: 50-75

Q: Cc1cc(C)c(S(=O)(=O)N(Cc2ccc(-c3cccc(S(C)(=O)=O)c3)cc2)Cc2ccc(C(F)(F)F)o2)c(C)c1 [GSK2033] was tested. Which Viability ([1]; human, 24 h, 10000 nM) did it give?
A: 100%

Q: What about the fold induction at 10 µM ([2]; 24 h) of the same compound?
A: 1.25 to 1.5

Q: And the “Number of Gigasomes Produced” value [2, 10]?
A: 150-175

Q: What does the source list for NC1=N[C@@]2(c3cc(NC(=O)c4ccc(F)cn4)ccc3F)COC[C@H]2CS1 [LY288672, reference compound]?
A: Viability ([1]; human, 24 h, 1000 nM): >75%; fold induction at 1 µM ([2]; 24 h): 1.5 to 1.75; Number of Gigasomes Produced [2, 11]: 175-200

Q: Which Viability ([1]; human, 24 h, 1000 nM) does the source give for COC(=O)C=Cc1ccccc1 [Methyl cinnamate] here?
A: >75%

Q: And the fold induction at 1 µM ([2]; 24 h)?
A: 1.25 to 1.5

Q: And the “Number of Gigasomes Produced” value [2, 11]?
A: 150-175

Q: How did the fold induction at 0.01 µM [3, 13] turn out when CC(=O)c1cc2c(o1)C(=O)c1ccccc1C2=O [Napabucasin] was run?
A: 1 to 1.25

Q: What about the fold induction at 0.1 µM [3, 13] of the same compound?
A: 1.5 to 1.75

Q: What about the “Number of Gigasomes Produced” value ([3]; dose 10 nM) of the same compound?
A: 35-45

Q: What about the “Number of Gigasomes Produced” value ([3]; dose 100 nM) of the same compound?
A: 45-55

Q: What about the Viability ([4]; dose 10 nM) of the same compound?
A: 100%

Q: What about the Viability ([4]; dose 100 nM) of the same compound?
A: 100%
